ChEMBL document CHEMBL4257489, “Recent updates in the discovery and development of novel antimalarial drug candidates” (Medchemcomm, 2018)

Legend:
[1] = Oral bioavailability in Sprague-Dawley rat at 10 mg/kg administered via gavage; type: ADME, organism-based; conditions: in vivo
Plasmodium berghei [2] = assay: Antimalarial activity against Plasmodium berghei infected in mouse by Thompson test; type: functional
[3] = Half life in CD1 mouse at 2.5 mg/kg, iv; type: ADME, organism-based; conditions: in vivo
[4] = Oral bioavailability in CD1 mouse at 10 mg/kg; type: ADME, organism-based; conditions: in vivo
Plasmodium berghei [5] = assay: Antimalarial activity against Plasmodium berghei infected in po dosed mouse measured after 3 doses by 4 day peter's test; type: functional; conditions: 96 h
Plasmodium berghei [6] = assay: Antimalarial activity against Plasmodium berghei infected in mouse assessed as cure rate at 30 mg/kg, po relative to control; type: functional
[7] = Oral bioavailability in C57BL/6 mouse at 100 mg/kg; type: ADME, organism-based; conditions: in vivo
Plasmodium berghei [8] = assay: Antimalarial activity against GFP-fused Plasmodium berghei ANKA infected in NMRI mouse assessed as mouse survival at 100 mg/kg, po administered at 4, 24, 48, 72 hrs post infection; type: functional
Plasmodium berghei [9] = assay: Antimalarial activity against GFP transfected Plasmodium berghei ANKA infected in NMRI mouse assessed as suppression of parasitemia at 100 mg/kg, po administered at 4, 24, 48, 72 hrs post infection measured at 96 hrs post infection by FACS analysis relative to control; type: functional
Plasmodium berghei [10] = assay: Antimalarial activity against GFP transfected Plasmodium berghei in ICR mouse engrafted with parasite infected erythrocytes assessed as reduction in parasitemia administered as po qd for 3 to 5 days post infection measured on day 3 to 30 by Giemsa staining-based microscopic method; type: functional
Plasmodium falciparum = assay: Antimalarial activity against Plasmodium falciparum 3D7 0087/N9 in NODscid IL-2Rgammanull mouse engrafted with parasite infected human erythrocytes assessed as reduction in parasitemia administered via oral gavage starting from day 3 to day 6 post infection measured every 24 hrs during compound dosing by flow cytometric method; type: functional; conditions: 3D7 0087/N9, po
[11] = Oral bioavailability in mouse at 15 mg/kg; type: ADME, organism-based; conditions: in vivo
[12] = Oral bioavailability in beagle dog at 30 mg/kg; type: ADME, organism-based, Canis lupus familiaris; conditions: in vivo
[13] = Oral bioavailability in beagle dog at 3 mg/kg; type: ADME, organism-based, Canis lupus familiaris; conditions: in vivo
[14] = Oral bioavailability in Sprague-Dawley rat at 17 +/- 0.2 mg/kg administered via gavage as suspension; type: ADME, organism-based; conditions: in vivo
[15] = Oral bioavailability in Sprague-Dawley rat at 20 +/- 0.2 mg/kg administered via gavage as solution; type: ADME, organism-based; conditions: in vivo
[16] = tested on: acetylcholinesterase (AChE); assay: Selectivity index, ratio of IC50 for human AchE to IC50 for Plasmodium falciparum NF54; type: toxicity; conditions: read-out: Ratio IC50
hERG = assay: Selectivity index, ratio of IC50 for human ERG to IC50 for Plasmodium falciparum NF54; type: toxicity; conditions: read-out: Ratio IC50
[17] = Oral bioavailability in rat; type: ADME, organism-based; conditions: in vivo

## CC1(C)N=C(N)N=C(N)N1OCCCOc1cc(Cl)c(Cl)cc1Cl
[1]
  bioavailability: < 1%

## COc1cc2[nH]c(C)c(-c3ccc(Oc4ccc(OC(F)(F)F)cc4)cc3)c(=O)c2cc1Cl
Plasmodium berghei [2]
  ED50: 0.016 mg/kg

## COc1ccc(NC(=O)N2CCCCN3[C@H](CN(C)C)[C@H](c4ccc(C#Cc5ccccc5)cc4)[C@@H]3C2)cc1
[3]
  half-life: 32 h
[4]
  bioavailability: 80%

## FC1CCN(CCOc2ccc(C3CCC4(CC3)OOC3(OO4)C4CC5CC(C4)CC3C5)cc2)CC1 (centres undefined)
Plasmodium berghei [5]
  ED50: 4 mg/kg
Plasmodium berghei [6]
  Activity: 66%

## COc1ccc2c(c1)CC[C@@H]1[C@@H]2CC[C@]2(C)[C@H](NCc3cc4ccccc4cc3O)CC[C@@H]12
[7]
  bioavailability: < 5%
Plasmodium berghei [8]
  Survival: 27 days
Plasmodium berghei [9]
  Activity: 99.8%

## N#Cc1cc(NC(=O)[C@H]2c3ccccc3C(=O)N(CC(F)(F)F)[C@@H]2c2cccnc2)ccc1F [SJ-733]
Plasmodium berghei [10]
  ED50: < 5 mg/kg
Plasmodium falciparum
  ED50: < 5 mg/kg
[11]
  bioavailability: > 30%
[12]
  bioavailability: > 30%
[13]
  bioavailability: > 30%
[14]
  bioavailability: > 30%
[15]
  bioavailability: > 30%

## Cc1nc(Nc2ncc(N3CCN(C)[C@H](C)C3)c(Nc3cc(C)n(C)n3)n2)cc(C2CC2)c1F [SUTIDIAZINE]
[16]
  selectivity ratio: > 1000
hERG
  selectivity ratio: > 1000
[17]
  bioavailability: 80%
